Test results as given in patent US8080264B2, “Natural composition for curing hepatitis-B, methods for making the same and pharmaceutical formulations thereof” (Himalaya Global Holdings Ltd., priority 2004, dated 2011).

Tested on: HepG2 cells
Test: Hepatoprotective effects in vitro against TBH oxidative damage
Conditions: MTT, TBH challenge

CC(C)(C)OO [TBH, Tertiary Butyl Hydro peroxide]
Survival (%): 52.53%
